According to patent US20240002368A1 (QILU REGOR THERAPEUTICS INC., priority 2020, published 2024):

Tests used:
Trex1−/− mice = settings: given to Trex1−/− mice; cited from earlier work
STING pathway = assay: IFN β reporter assay (HTRF, 2′3′-cGAMP-stimulated THP1 cells); type: cell-based, human; settings: Homo sapiens, THP-1, THP1 cells, 5 μM 2′3′-cGAMP, IFN β secretion inhibition; class symbols; read-out: IFN β reporter activity IC50
Procedure: STING pathway deactivation by the compounds described herein was measured using THP1 cells. The THP1 Cells (obtained from ATCC, Cat #TIB-202) were maintained in RPMI-1640 (Gibco, Cat #22400105), 10% FBS, 1% Pen-Strep, 0.05 mM 2-mercaptoethanol. For STING activation, 2′3′-cGAMP (MW 718.38, obtained from Invivogen) was used and prepared in serum-free RPMI-1640 media. Growth media: RPMI-1640 (HEPES, glutamine), 10% FBS, 1% Pen-Strep, 0.05 mM 2-mercaptoethanol. Assay media: RPMI-1640 (HEPES, glutamine), 0.5% FBS. 2′3′-cGAMP: Dissolve 2′3′-cGAMP to 10 mM stock in H2O.
The cells were prepared and seeded at 100K, 90 μL/well with assay media in cell culture plate (Greiner 655180). The compounds were added in 96-well tissue culture plates by Tecan D300e for a final concentration of 0.00137-3 μM.
Lipo2000/3000 and 2′3′-cGAMP stock solutions were diluted respectively in serum-free RPMI-1640 media. The diluted 2′3′-cGAMP and Lipo (V/V=1:1) were mixed and stood for 15 min at room temperature. 10 μL 2,3-cGAMP/Lipofectamine (10×) was transferred to the 96-well assay plate with a final 2′3′-cGAMP concentration of 5 μM. The cell plates were centrifuged at 1000 rpm for 5 min after incubating at 37° C., 5% CO2 overnight.
All reagents (human IFN beta kit, Cisbio 62HIFNBPEG) were warmed to room temperature for at least 30 min before the assay. The instructions of the kit were followed to prepare the detection media. 14 μL of cell supernatants was transferred into their dedicated wells in 384-well plate. Then 2 μL of the activation reagent solution and 4 μL of the mixed antibody solution were added to all wells. The plate was sealed and incubated for 3 h at room temperature.
The HTRF signal was read in Envision (PerkinElmer). IFN β reporter activity was then measured. The calculated ratio is the signal at 665 nm/signal at 615 nm. IC50 values are calculated by using standard methods known in the art.

IC50 (STING pathway) | Compound | development of experimental autoimmune myocarditis (Trex1−/− mice)
– | CCN(CCO)CCCC(C)Nc1ccnc2cc(Cl)ccc12 (centres unmarked) [hydrochloroquine] | prevents
0.2 to 1 µM | Cn1cc(C(=O)Nc2c[nH]c3ccc(F)cc23)c2cc(F)c(CN3CCOCC3)cc21 [Example 95] | –
